Measured values published in publication PMC5668088, “A phase I clinical trial of binimetinib in combination with FOLFOX in patients with advanced metastatic colorectal cancer who failed prior standard therapy” (Oncotarget, 2017).
Where two headings read alike, the source gives them in different places.

Legend:
[1] = human, in vivo, po
Protocol: A standard 3 + 3 dose-escalation design was followed using a continuous and intermittent oral binimetinib dosing schedule combined with fixed-dose FOLFOX. […] The continuous binimetinib dosing schedule was comprised of 2 dosing levels: 30 mg orally twice daily and 45 mg orally twice daily continuously starting on day 1 with FOLFOX, repeated every 2 weeks. The MTD of binimetinib continuous daily dosing was explored in an additional 6-patient cohort to investigate potential FOLFOX-binimetinib pharmacokinetic interactions. In addition, the MTD dose of binimetinib was explored further with FOLFOX in an intermittent sequential schedule in order to minimize treatment toxicity, with binimetinib twice daily on days 1–5 with FOLFOX on days 6–7 every 2 weeks. The starting dose of binimetinib on the intermittent arm was the MTD dose level identified on the continuous dosing schedule. Following standard dose-escalation rules, the maximum tolerated dose (MTD) for either schedule was defined as the highest dose level tested in which no more than 1 of 6 patients experienced a dose-limiting toxicity (DLT) in the dose-escalation phase. […] No intra-patient dosing escalations were allowed. No escalation beyond the previous binimetinib monotherapy recommended dose of 45 mg PO BID was allowed. […]

MEK1/2 = conditions: preclinical; cited from earlier work
[2] = set-up: method as in ref 19–24 = [19]; 19 Sosman JA Kittaneh M Lolkema MP Postow MA Schwartz G Franklin C Matano A Bhansali S Parasuraman S Kim K A phase 1b/2 study of LEE011 in combination with binimetinib (MEK162) in patients with NRAS-m || [20]; 20 Juric D Soria JC Sharma S Banerji U Azaro A Desai J A phase Ib open-label, multicenter, dose-escalation and-expansion study of orally administered binimetinib (MEK162) plus BYL719 in adult patients || [21]; 21 Chi P Qin L D’Angelo SP Dickson MA Gounder MM Keohan ML Shoushtari AN Condy MM Konen T Fruauff A DeMatteo RP Singer S Hwang S A phase Ib/II study of MEK162 (binimetinib [BINI]) in combination with || [22]; 22 Van Herpen C Postow MA Carlino MS Kalkavan H Weise A Amaria RN De Vos F Carvajal RD Matano A Bhansali S Lam L Yerramilli-Rao P Sosman JA A phase 1b/2 study of ribociclib (LEE011; CDK4/6 inhibitor) || [23]; 23 Dummer R Sandhu S Hassel JC Muñoz E Berking C Gesierich A Ascierto PA Esposito O Carter K Antona V Radhakrishnan R Cui X Caponigro G LOGIC2: Phase 2,multi-center, open-label study of sequential enc; conditions: oral twice daily, continuous dosing; five phase Ib/II trials; cited from earlier work
[3] = set-up: method as in ref 25 = [25]; 25 Grisham RN Gordon MS Harb WA Aghajanian C McMeekin DS McKinley K Anderson L Chavira R Christy-Bittel J Barrett E Moore KN A phase Ib dose-escalation study of binimetinib (MEK162) in combination wit; conditions: orally twice daily, cited from earlier work
advanced solid tumors = conditions: twice daily, cited from earlier work
[4] = cited from earlier work
previously-treated mCRC = system: previously-treated mCRC; set-up: method as in ref 34 = [34]; 34 Bendell J Won KT Ean CC Yung-Jue B Lee C Desai J Lewin J Wallin J Das Thakur M Mwawasi G Cha E Infante J Safety and efficacy of cobimetinib (cobi) and atezolizumab (atezo) in a Phase 1b study of me; conditions: escalating doses of cobimetinib in combination with atezolizumab; 23 patients (4 responders); cited from earlier work
[5] = 5-FU plasma pharmacokinetics without and with binimetinib (LC-MS/MS)
Protocol: Fluorouracil levels in plasma were determined using an LC-MS/MS analytical assay also in the APCF with LLOQ of 3 ng/mL from a 200 μL aliquot of plasma.

[6] = for Oxaliplatin T1/2, Avg STD: Table 4
[7] = Pt#1, Cycle 1 (without binimetinib)
[8] = Pt#2, Cycle 1 (without binimetinib)
[9] = Pt#2, Cycle 2 (with binimetinib)
[10] = Pt#3, Cycle 1 (without binimetinib)
[11] = Pt#3, Cycle 2 (with binimetinib)
[12] = Pt#4, Cycle 1 (without binimetinib)
[13] = Pt#4, Cycle 2 (with binimetinib)
[14] = Pt#5, Cycle 1 (without binimetinib)
[15] = Pt#5, Cycle 2 (with binimetinib)
[16] = Pt#6, Cycle 2 (with binimetinib)

## Cn1cnc2c(F)c(Nc3ccc(Br)cc3F)c(C(=O)NOCCO)cc21 [binimetinib]
[1]
  MTD of binimetinib in combination with FOLFOX: 45 mg
MEK1/2
  Inhibition of MEK and downstream phosphorylated ERK (pERK): nanomolar range
[2]
  MTD or RP2D of binimetinib in combination with various targeted agents: 45 mg
[3]; continuous dosing, paclitaxel 80 mg/m^2 weekly 3 out of 4 weeks
  RP2D of binimetinib combined with paclitaxel: 30 mg
[3]; intermittent dosing (days 1–5 weekly for 3 out of 4 weeks)
  RP2D of binimetinib combined with paclitaxel: 45 mg
Advanced solid tumors; due to recurrent DLTs of retinal events
  Recommended phase II dose (RP2D) of oral binimetinib: 45 mg
Advanced solid tumors; pretreated advanced solid tumors, first dose-escalation phase I study
  MTD of single-agent oral binimetinib: 60 mg
[4]; in vivo
  Patients with atrial fibrillation: 1
  Patients with irregular heart rate: 1
[4]; phase II trial, binimetinib 45 mg twice daily, NRAS- or BRAF-mutated advanced melanomas
  Patients with grade 1–2 retinal adverse events: 18%

## O=C(c1ccc(F)c(F)c1Nc1ccc(I)cc1F)N1CC(O)([C@@H]2CCCCN2)C1 [cobimetinib]
previously-treated mCRC
  Partial responses: 17%

## O=c1[nH]cc(F)c(=O)[nH]1 [5-FU, Fluorouracil]
[5]; Cycle 2 (with binimetinib 45 mg BID continuous), plasma, PK cohort
  5-FU steady-state level, Avg STD: 597.6 ± 204.5 ng/mL
[5]; [7]
  5-FU steady-state level: 353.0 ng/mL
[5]; Pt#1, Cycle 2 (with binimetinib)
  5-FU steady-state level: 293.1 ng/mL
[5]; [8]
  5-FU steady-state level: 524.0 ng/mL
[5]; [9]
  5-FU steady-state level: 480.5 ng/mL
[5]; [10]
  5-FU steady-state level: 627.5 ng/mL
[5]; [11]
  5-FU steady-state level: 718.0 ng/mL
[5]; [12]
  5-FU steady-state level: 427.5 ng/mL
[5]; [13]
  5-FU steady-state level: 770.5 ng/mL
[5]; [14]
  5-FU steady-state level: 621.0 ng/mL
[5]; [15]
  5-FU steady-state level: 726.0 ng/mL
[5]; Pt#6, Cycle 1 (without binimetinib)
  5-FU steady-state level: 428.0 ng/mL
[5]; in vivo
  Difference in 5-FU PK with vs without binimetinib: no significant differences

## O=C1[O][Pt]2([NH][C@@H]3CCCC[C@H]3[NH]2)[O]C1=O [Oxaliplatin]
[6]; Cycle 1 (without binimetinib)
  Oxaliplatin AUC, Avg STD: 26580.5 4844.8 μg/L X hr
  Oxaliplatin T1/2, Avg STD: 37.1 11.7 36
[6]; Cycle 1 (without binimetinib), listed as oxaliplatin
  Oxaliplatin AUC, Avg STD: 26580.5 ± 4844.8 μg/L X hr
[6]; Cycle 2 (with binimetinib)
  Oxaliplatin AUC, Avg STD: 32190.9 11861.2 μg/L X hr
  Oxaliplatin T1/2, Avg STD: 38.8 22.6 36
[6]; Cycle 2 (with binimetinib), listed as oxaliplatin
  Oxaliplatin AUC, Avg STD: 32190.9 ± 11861.2 μg/L X hr
[6]; [7]
  Oxaliplatin AUC: 28618.0 μg/L X hr
  Oxaliplatin Cmax: 536.0 ng/mL
[6]; [8]
  Oxaliplatin AUC: 31146.9 μg/L X hr
  Oxaliplatin Cmax: 780.8 ng/mL
[6]; [9]
  Oxaliplatin AUC: 51036.0 μg/L X hr
  Oxaliplatin Cmax: 590.0 ng/mL
[6]; [10]
  Oxaliplatin AUC: 25757.7 μg/L X hr
  Oxaliplatin Cmax: 686.5 ng/mL
[6]; [11]
  Oxaliplatin AUC: 33953.4 μg/L X hr
  Oxaliplatin Cmax: 726.5 ng/mL
[6]; [12]
  Oxaliplatin AUC: 18615.5 μg/L X hr
  Oxaliplatin Cmax: 601.5 ng/mL
[6]; [13]
  Oxaliplatin AUC: 25138.7 μg/L X hr
  Oxaliplatin Cmax: 748.5 ng/mL
[6]; [14]
  Oxaliplatin AUC: 28764.2 μg/L X hr
  Oxaliplatin Cmax: 389.3 ng/mL
[6]; [15]
  Oxaliplatin AUC: 19805.3 μg/L X hr
  Oxaliplatin Cmax: 583.5 ng/mL
[6]; [16]
  Oxaliplatin AUC: 31020.9 μg/L X hr
  Oxaliplatin Cmax: 671.0 ng/mL
[6]; with binimetinib
  Oxaliplatin average T1/2: 38.8 ± 22.6 h
[6]; without binimetinib
  Oxaliplatin average T1/2: 37.1 ± 11.7 h
